Values quoted from earlier work in article PMC9817006 (Journal of psychopharmacology (Oxford, England), 2022).

Assays:
[1] = systemic administration; ref Rueter et al., 2006; cited from earlier work
C57BL/6J mice = conditions: low and high doses, ref Akinola et al., 2019; cited from earlier work
rats = conditions: ref Freitas et al., 2016; cited from earlier work

c1cncc(OC[C@@H]2CCN2)c1 [A-85380]
Antinociception and anti-allodynic activity (in words) [1]: showing efficacy in multiple in vivo assays of antinociception, and anti-allodynic activity after systemic administration

CN1CCC[C@H]1c1cccnc1 [nicotine]
Locomotor sensitization (in words) (C57BL/6J mice): lack of locomotor sensitization

dihydro-ß-erythroidine [DHßE]
Effect on 5IA-facilitated ICSS (in words) (rats): blocked
